Experimental data published in patent US7407775B2, “Method for identifying Listeria monocytogenes and culture medium” (Biomerieux S.A., priority 2000, dated 2008).

Assays:
Format in all cases: cell-based
[1] = system: Listeria monocytogenes, Listeria innocua and Listeria ivanovii; experiment: Experiment 4: comparison of Listeria strains with pairs of substrates; conditions: for results as saccharidase substrate paired with an esterase substrate: Experiment 4, semi-solid medium
Description: (§1) In Table 1 above, as in the following Tables, C represents the color of the colonies after incubation, I represents the intensity of the color, and the symbol “-” corresponds to the absence of color or intensity; finally, IT defines the incubation time. It should be noted that the intensity of the color is scored on an arbitrary scale but one which is consistent for all the biological specimens and media tested. This scale is valid for this experiment as well as all those that follow. It can be defined in the following way: • 0 corresponds to no activity, • 0.1 corresponds to a trace of color, • 0.5 corresponds to very pale coloration, • 1 corresponds to clear but low-intensity coloration, • 1.5 corresponds to a degree of coloration intermediate between scores 1 and 2, • 2 corresponds to clear coloration of moderate intensity, • 2.5 corresponds to a degree of coloration intermediate between scores 2 and 3, • 3 corresponds to intense coloration, • 3.5 corresponds to a degree of coloration intermediate between scores 3 and 4, • 4 corresponds to very intense coloration.
A stock solution of each esterase substrate at a concentration of 40 g/l was made up in a mixture of 40% Dimethylsulfoxide and 60% Tween 20. And a stock solution of each saccharidase substrate was made up in Dimethylsulfoxide. An appropriate volume of the stock solution of the esterase substrate corresponding to each of the pairs described above was added to one of eight Columbia-type media while cooling to obtain a final substrate concentration of 250 mg/l. In parallel, an appropriate volume of the stock solution of the saccharidase substrate corresponding to each of the pairs described above was added to each of the eight media in order to obtain a final concentration of between 100 and 200 mg/l (depending on the substrate). These dishes were divided into three areas and then each area was inoculated with a suspension (density=0.5 McFarland) of microorganisms taken from either the Applicant's own collection or the ATCC. The dishes were incubated for 48 hours at 37° C. The colonies which grew were examined by eye after 24 and 48 hours of incubation.
Both the color and the intensity of the color of the colonies were recorded.

Listeria ivanovii 018 = experiment: Experiment 3: detecting an esterase activity in liquid medium (API-type strips); set-up: key: —: the symbol “-” corresponds to the absence of color or intensity; 0 corresponds to no activity; 0.1 corresponds to a trace of color; 0.5 corresponds to very pale coloration; 1 corresponds to clear but low-intensity coloration; 1.5 corresponds to a degree of coloration intermediate between scores 1 and 2; 2 corresponds to clear coloration of moderate intensity; 2.5 corresponds to a degree of coloration intermediate between scores 2 and 3; 3 corresponds to intense coloration; 3.5 corresponds to a degree of coloration intermediate between scores 3 and 4; 4 corresponds to very intense coloration; conditions: 37° C.
Description: as §1
(§2) These substrates were lyophilized in the wells of API-type strips (Registered Trademark). Before use, the substrates contained in the wells were resuspended in an agar-free Columbia-type inoculation medium. These wells were then inoculated with a suspension (density=2 McFarland) of microorganisms taken from either the Applicant's own collection or the ATCC. The strips were incubated for 8 hours at 37° C. The colonies which grew were examined by eye after 4, 6 and 8 hours of incubation.
(§3) The intensity of the color of the colonies was recorded.

Listeria innocua 171 = experiment: as above; set-up: key: —: the symbol “-” corresponds to the absence of color or intensity; 0 corresponds to no activity; 0.1 corresponds to a trace of color; 0.5 corresponds to very pale coloration; 1 corresponds to clear but low-intensity coloration; 1.5 corresponds to a degree of coloration intermediate between scores 1 and 2; 2 corresponds to clear coloration of moderate intensity; 2.5 corresponds to a degree of coloration intermediate between scores 2 and 3; 3 corresponds to intense coloration; 3.5 corresponds to a degree of coloration intermediate between scores 3 and 4; 4 corresponds to very intense coloration; conditions: 37° C.
Description: as §1, §2, §3

Listeria innocua 166 = experiment: as above; set-up: key: —: the symbol “-” corresponds to the absence of color or intensity; 0 corresponds to no activity; 0.1 corresponds to a trace of color; 0.5 corresponds to very pale coloration; 1 corresponds to clear but low-intensity coloration; 1.5 corresponds to a degree of coloration intermediate between scores 1 and 2; 2 corresponds to clear coloration of moderate intensity; 2.5 corresponds to a degree of coloration intermediate between scores 2 and 3; 3 corresponds to intense coloration; 3.5 corresponds to a degree of coloration intermediate between scores 3 and 4; 4 corresponds to very intense coloration; conditions: 37° C.
Description: as §1, §2, §3

[2] = system: Listeria monocytogenes ATCC 19115; experiment: as above; set-up: key: —: the symbol “-” corresponds to the absence of color or intensity; 0 corresponds to no activity; 0.1 corresponds to a trace of color; 0.5 corresponds to very pale coloration; 1 corresponds to clear but low-intensity coloration; 1.5 corresponds to a degree of coloration intermediate between scores 1 and 2; 2 corresponds to clear coloration of moderate intensity; 2.5 corresponds to a degree of coloration intermediate between scores 2 and 3; 3 corresponds to intense coloration; 3.5 corresponds to a degree of coloration intermediate between scores 3 and 4; 4 corresponds to very intense coloration; conditions: 37° C.
Description: as §1, §2, §3

[3] = system: Listeria grayi ATCC 19120; experiment: as above; set-up: key: —: the symbol “-” corresponds to the absence of color or intensity; 0 corresponds to no activity; 0.1 corresponds to a trace of color; 0.5 corresponds to very pale coloration; 1 corresponds to clear but low-intensity coloration; 1.5 corresponds to a degree of coloration intermediate between scores 1 and 2; 2 corresponds to clear coloration of moderate intensity; 2.5 corresponds to a degree of coloration intermediate between scores 2 and 3; 3 corresponds to intense coloration; 3.5 corresponds to a degree of coloration intermediate between scores 3 and 4; 4 corresponds to very intense coloration; conditions: 37° C.
Description: as §1, §2, §3

Listeria seeligeri 011 = experiment: as above; set-up: key: —: the symbol “-” corresponds to the absence of color or intensity; 0 corresponds to no activity; 0.1 corresponds to a trace of color; 0.5 corresponds to very pale coloration; 1 corresponds to clear but low-intensity coloration; 1.5 corresponds to a degree of coloration intermediate between scores 1 and 2; 2 corresponds to clear coloration of moderate intensity; 2.5 corresponds to a degree of coloration intermediate between scores 2 and 3; 3 corresponds to intense coloration; 3.5 corresponds to a degree of coloration intermediate between scores 3 and 4; 4 corresponds to very intense coloration; conditions: 37° C.
Description: as §1, §2, §3

Listeria welshimeri 023 = experiment: as above; set-up: key: —: the symbol “-” corresponds to the absence of color or intensity; 0 corresponds to no activity; 0.1 corresponds to a trace of color; 0.5 corresponds to very pale coloration; 1 corresponds to clear but low-intensity coloration; 1.5 corresponds to a degree of coloration intermediate between scores 1 and 2; 2 corresponds to clear coloration of moderate intensity; 2.5 corresponds to a degree of coloration intermediate between scores 2 and 3; 3 corresponds to intense coloration; 3.5 corresponds to a degree of coloration intermediate between scores 3 and 4; 4 corresponds to very intense coloration; conditions: 37° C.
Description: as §1, §2, §3

[4] = system: Listeria monocytogenes 092; experiment: as above; set-up: key: —: the symbol “-” corresponds to the absence of color or intensity; 0 corresponds to no activity; 0.1 corresponds to a trace of color; 0.5 corresponds to very pale coloration; 1 corresponds to clear but low-intensity coloration; 1.5 corresponds to a degree of coloration intermediate between scores 1 and 2; 2 corresponds to clear coloration of moderate intensity; 2.5 corresponds to a degree of coloration intermediate between scores 2 and 3; 3 corresponds to intense coloration; 3.5 corresponds to a degree of coloration intermediate between scores 3 and 4; 4 corresponds to very intense coloration; conditions: 37° C.
Description: as §1, §2, §3

Listeria species = experiment: Experiment 3: differentiation of Listeria species in liquid medium
Description: as §1
These substrates were lyophilized in the wells of API-type strips (Registered Trademark). Before use, the substrates contained in the wells were resuspended in an agar-free Columbia-type inoculation medium. […]
as §3

| SMILES | I (intensity of the color) (Listeria ivanovii 018; IT 4 h) | I (intensity of the color) (Listeria ivanovii 018; IT 6 h) | I (intensity of the color) (Listeria ivanovii 018; IT 8 h) | I (intensity of the color) (Listeria innocua 171; IT 4 h) | I (intensity of the color) (Listeria innocua 171; IT 6 h) | I (intensity of the color) (Listeria innocua 171; IT 8 h) | I (intensity of the color) (Listeria innocua 166; IT 4 h) | I (intensity of the color) (Listeria innocua 166; IT 6 h) | I (intensity of the color) (Listeria innocua 166; IT 8 h) | I (intensity of the color) ([2]; IT 4 h) | I (intensity of the color) ([2]; IT 6 h) | I (intensity of the color) ([2]; IT 8 h) | I (intensity of the color) ([3]; IT 4 h) | I (intensity of the color) ([3]; IT 6 h) | I (intensity of the color) ([3]; IT 8 h) | I (intensity of the color) (Listeria seeligeri 011; IT 4 h) | I (intensity of the color) (Listeria seeligeri 011; IT 6 h) | I (intensity of the color) (Listeria seeligeri 011; IT 8 h) | I (intensity of the color) (Listeria welshimeri 023; IT 4 h) | I (intensity of the color) (Listeria welshimeri 023; IT 6 h) | further results |
| --- | --- | --- | --- | --- | --- | --- | --- | --- | --- | --- | --- | --- | --- | --- | --- | --- | --- | --- | --- | --- | --- |
| CCCCCCCCC(=O)Oc1c[nH]c2ccc(Br)c(Cl)c12 [5-Bromo-4-chloro-3-indolyl nonanoate] | – | – | – | – | – | – | – | – | – | – | – | – | – | – | – | – | – | – | – | – | contrast ([1]; together with a saccharidase substrate based on 6-Chloro-3-indolyl, whatever the target activity): best contrast |
| CC(=O)Oc1c[nH]c2ccccc12 [Y-C2, 3-Indolyl acetate] | 3 | 4 | 4 | 3 | 3 | 4 | 3 | 3 | 4 | 3 | 4 | 4 | 3 | 4 | 4 | 3 | 3 | 4 | 3 | 4 | I (intensity of the color) (Listeria welshimeri 023; IT 8 h): 4; I (intensity of the color) ([4]; IT 4 h): 4; I (intensity of the color) ([4]; IT 6 h): 4; I (intensity of the color) ([4]; IT 8 h): 4 |
| OC[C@H]1O[C@@H](Oc2c[nH]c3cc(Cl)ccc23)[C@H](O)[C@@H](O)[C@@H]1O [6-Chloro-3-indolyl-β-D-glucoside] | – | – | – | – | – | – | – | – | – | – | – | – | – | – | – | – | – | – | – | – | results as saccharidase substrate paired with an esterase substrate [1]: best results |
| CC(=O)N[C@H]1[C@H](Oc2c[nH]c3cc(Cl)ccc23)O[C@H](CO)[C@@H](O)[C@@H]1O [6-Chloro-3-indolyl-N-acetyl-β-D-glucosaminide] | – | – | – | – | – | – | – | – | – | – | – | – | – | – | – | – | – | – | – | – | results as saccharidase substrate paired with an esterase substrate [1]: best results |
| CC(=O)Oc1c[nH]c2ccc(Br)c(Cl)c12 [X-C2, 5-Bromo-4-chloro-3-indolyl acetate] | 3 | 3 | 4 | 4 | 4 | 4 | 3 | 4 | 4 | 3 | 4 | 4 | 2 | 2 | 3 | 3 | 3 | 4 | 3 | 4 | I (intensity of the color) (Listeria welshimeri 023; IT 8 h): 4; I (intensity of the color) ([4]; IT 4 h): 3; I (intensity of the color) ([4]; IT 6 h): 4; I (intensity of the color) ([4]; IT 8 h): 4 |
| OC[C@H]1O[C@H](Oc2c[nH]c3cc(Cl)ccc23)[C@@H](O)[C@@H](O)[C@@H]1O [6-Chloro-3-indolyl-α-D-mannoside] | – | – | – | – | – | – | – | – | – | – | – | – | – | – | – | – | – | – | – | – | results as saccharidase substrate paired with an esterase substrate [1]: best results |
| CCCC(=O)Oc1c[nH]c2ccc(Br)c(Cl)c12 [X-C4, 5-Bromo-4-chloro-3-indolyl butyrate] | 0.5 | 1 | 2 | 0.5 | 1 | 2 | 0.5 | 1 | 2 | 1 | 2 | 3 | 0.5 | 1 | 2 | 0.5 | 1 | 2 | 0.5 | 1 | I (intensity of the color) (Listeria welshimeri 023; IT 8 h): 2; I (intensity of the color) ([4]; IT 4 h): 2; I (intensity of the color) ([4]; IT 6 h): 2; I (intensity of the color) ([4]; IT 8 h): 3; differentiation between L. monocytogenes and other species belonging to the same genus (Listeria species): gave a contrast in color |
